Measurements taken from patent US8916574B2, “4-(substituted anilino)-quinazoline derivatives useful as tyrosine kinase inhibitors” (Qilu Pharmaceutical Co., Ltd., priority 2009, dated 2014).
Like-named read-outs stand apart in the source and are kept apart here.

Tests used:
[1] = target: Her2 receptor tyrosine kinase (Homo sapiens (Human), UniProt P04626); assay: In vitro kinase analysis, HTScan HER2/ErbB2 Kinase Assay Kit (substrate peptide phosphorylation); format: biochemical
Protocol: (§1) Operation steps refer to the specification of the used kits, and the method was used to measure the inhibition effects of the compound to be tested on substrate peptide phosphorylation of EGFR or Her2 receptor tyrosine kinase. At room temperature, ATP and substrate peptide as well as the compound to be tested were incubated in kinase reaction buffer, after a period of incubation, a stop buffer was added to terminate the reaction and the sample was transferred to a streptavidin-coated 96-well plate, the plate was washed and the phosphorylation level of substrate peptide was detected by using HRP-marked antibody against substrate phosphorylation, colorated with TMB, terminated the reaction with 2M sulfuric acid. Absorption at 450 nm wavelength was detected, and IC50 value (μM) was calculated.

[2] = target: EGFR receptor tyrosine kinase (Homo sapiens (Human), UniProt P00533); assay: In vitro kinase analysis, HTScan EGF Receptor Kinase Assay Kit (substrate peptide phosphorylation); format: biochemical
Protocol: as §1

[3] = Pharmacokinetics in SD rats after a single intragastric dose; format: in vivo; details: 100 mg/kg intragastric single dose, plasma
Protocol: The animals were fasted for 12 h before test, drinking water freely. And fed after 2 h of administration. At 0.25, 0.5, 1.0, 2.0, 3.0, 5.0, 7.0, 9.0, 12 and 24 h after administration, 0.3 ml blood samples were taken from venous plexus behind eyeball of rats into heparinized test tubes, then centrifuged at 11000 rpm for 5 min, plasma were separated, and preserved at […]. The concentrations of drug in original form and metabolites thereof in plasma were measured by liquid chromatography-mass spectrometry.

[4] = target: hERG potassium currents (IKr) (Homo sapiens (Human), UniProt Q12809); assay: hERG potassium currents, whole cell patch clamp in transfected HEK293 cells; format: cell-based; details: HEK293 cells transfected with hERG cDNA
[5] = system: human gastric cancer cell line NCI-N87; assay: Test of cell proliferation inhibition (SRB), N87; format: cell-based; details: for IC50: Homo sapiens, NCI-N87, 72 h, read-out: Test of cell proliferation inhibition IC50 N87
Protocol: (§2) The test was performed by referring to the method as described by Rusnak et al., Cell Prolif, 2007, 40, 580-594. The test of cell proliferation inhibition used human breast cancer cells BT474 and human gastric cancer cell line NCI-N87, BT474 over-expressing Her2 receptor, N87 over-expressing EGFR and Her2 receptor.
(§3) In a Dulbecco Modified Eagle Medium (DMEM) comprising 10% fetal bovine serum, 2 mM glutamine and non-essential amino acids, cells were cultured at 37° C. in 5% CO2 cell incubator, and trypsin/ethylenediamine tetraacetic acid (EDTA) were used to harvest cells in cell culture bottle. […] The change of cell form was observed under microscope, then 50 μl 50% (mass/volume)trichloroacetic acid (TCA) was added to per well to fix cells. The final concentration of TCA was 10%, standing for 5 min and placing in 4° C. refrigerator for 1 h, the wells of the culture plate were washed with deionized water for 5 times to remove TCA, drained, dried in air until no wet trace was observed. 100 μl of 0.4% (mass/volume) SRB was added to each well, stood at room temperature for 10 min, the liquid in each well was discarded, then the wells were washed with 1% acetic acid for 5 times, dried in air, extracted with 150 μl of 10 mM Tris base (trihydroxymethylaminomethane, pH 10.5), the absorption at 540 nm wavelength was detected.

[6] = system: human breast cancer cells BT474; assay: Test of cell proliferation inhibition (SRB), BT474; format: cell-based; details: BT-474, 72 h
Protocol: as §2, §3

[7] = system: human gastric cancer NCI-N87 transplanted tumor; assay: Tumor inhibition at a single dose, NCI-N87 transplanted tumor in nude mice; format: in vivo, BALB/cA-nude mice; details: 200 mg/kg intragastrically, once per day, 28 days; for Rate of tumor inhibition d21 (%): head prints d21; for d28 Vave (tumor volume): in mm³; for Animal number in each group: Partial regression: of 6 animals
Source text: (§4) BALB/cA-nude mice, female, 4-6 weeks, body weight 22±2 g, were purchased from Shanghai SLAC Laboratory Animal Co. Ltd, raised in SPF grade environment.
(§5) In vitro cultured NCI-N87 cells were subcutaneously inoculated at right axillary fossa of nude mice, each was inoculated with about 5×10^6 cells, and passaged twice in vivo after tumor formation. Under sterile conditions, eugonic tumor tissues were cut into tumor pieces of about 1.5 mm^3, and inoculated at right axillary fossa of nude mice. Tumor diameters were measured by vernier caliper, the animals were randomly divided (d0) after the tumors grew to 100-200 mm^3. […] During administration period, the body weight of mice and the diameter of tumors were measured 3 times per week. The tumor volume and relative tumor volume were calculated according to the measured data, the formulation for calculating tumor volume (TV) is: TV=½×a×b^2, wherein a, b represent major diameter and minor diameter of tumor; the formulation for calculating relative tumor volume (RTV) is: RTV=Vt/V0, wherein V0 is the tumor volume measured when dividing groups for administration (i.e., d0), Vt is tumor volume measured each time. […] The formulation for calculating relative tumor inhibition rate is: 1−T/C (%).

[8] = system: human ovarian cancer SK-OV-3 transplanted tumor; assay: Tumor inhibition at a single dose, SK-OV-3 transplanted tumor in nude mice; format: in vivo, BALB/cA-nude mice; details: 200 mg/kg intragastrically, once per day, 21 days; for Animal number in each group: Partial regression: of 6 animals
Source text: as §4, §5
(§6) Nude mice were subcutaneously inoculated with human ovarian cancer SK-OV-3 cells, after tumors grew to 60-150 mm^3, the animals were randomly divided into groups (d0). […] During the administration period, the body weight of mice and the diameter of tumor were measured 3 times per week. The tumor volume, relative tumor inhibition rate and so on were calculated according to the aforementioned methods.

[9] = system: human ovarian cancer SK-OV-3 transplanted tumor; assay: Tumor inhibition at different dosages, SK-OV-3 transplanted tumor in nude mice; format: in vivo, BALB/cA-nude mice; details: once per day, 21 days; for Animal number in each group: Partial regression: of 6 animals
Source text: as §4, §5
as §6, with “The tumor volume, and” for “During the administration period, the”, “mice” for “mice and the diameter of tumor”, “week, and all data were recorded.” for “week.”

Her2 receptor tyrosine kinase, sequence (P04626 23-1255): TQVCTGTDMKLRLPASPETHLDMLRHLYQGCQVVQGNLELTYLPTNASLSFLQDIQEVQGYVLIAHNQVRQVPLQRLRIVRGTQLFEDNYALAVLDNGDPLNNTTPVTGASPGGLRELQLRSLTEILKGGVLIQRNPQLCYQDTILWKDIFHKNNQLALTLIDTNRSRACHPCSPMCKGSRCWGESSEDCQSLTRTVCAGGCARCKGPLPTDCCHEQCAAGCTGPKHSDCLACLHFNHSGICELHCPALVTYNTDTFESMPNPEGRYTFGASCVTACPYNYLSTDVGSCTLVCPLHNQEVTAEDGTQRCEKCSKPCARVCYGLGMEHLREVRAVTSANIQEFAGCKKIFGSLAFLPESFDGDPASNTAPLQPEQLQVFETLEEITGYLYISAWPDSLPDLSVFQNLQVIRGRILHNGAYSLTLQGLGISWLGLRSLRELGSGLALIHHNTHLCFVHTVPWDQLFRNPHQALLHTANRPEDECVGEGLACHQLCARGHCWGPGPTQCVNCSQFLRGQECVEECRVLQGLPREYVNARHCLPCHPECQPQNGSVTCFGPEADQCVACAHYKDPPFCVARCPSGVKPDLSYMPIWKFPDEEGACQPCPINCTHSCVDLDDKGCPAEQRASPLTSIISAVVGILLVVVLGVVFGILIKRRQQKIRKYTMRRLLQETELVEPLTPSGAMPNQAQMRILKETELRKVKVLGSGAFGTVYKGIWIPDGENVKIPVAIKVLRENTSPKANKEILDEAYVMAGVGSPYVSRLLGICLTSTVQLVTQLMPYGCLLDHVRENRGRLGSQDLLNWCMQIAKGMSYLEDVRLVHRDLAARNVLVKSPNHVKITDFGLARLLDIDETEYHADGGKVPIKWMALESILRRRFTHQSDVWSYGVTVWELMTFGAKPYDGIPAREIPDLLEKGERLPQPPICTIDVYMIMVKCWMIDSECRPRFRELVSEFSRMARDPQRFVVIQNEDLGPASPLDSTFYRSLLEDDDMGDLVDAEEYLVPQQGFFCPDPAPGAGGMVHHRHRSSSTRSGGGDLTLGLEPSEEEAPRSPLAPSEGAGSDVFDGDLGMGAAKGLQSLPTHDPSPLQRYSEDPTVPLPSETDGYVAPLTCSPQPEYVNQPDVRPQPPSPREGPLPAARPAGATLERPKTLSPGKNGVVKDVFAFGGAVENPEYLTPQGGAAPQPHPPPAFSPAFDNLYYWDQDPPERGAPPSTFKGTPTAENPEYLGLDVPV
EGFR receptor tyrosine kinase, sequence (P00533 25-1210): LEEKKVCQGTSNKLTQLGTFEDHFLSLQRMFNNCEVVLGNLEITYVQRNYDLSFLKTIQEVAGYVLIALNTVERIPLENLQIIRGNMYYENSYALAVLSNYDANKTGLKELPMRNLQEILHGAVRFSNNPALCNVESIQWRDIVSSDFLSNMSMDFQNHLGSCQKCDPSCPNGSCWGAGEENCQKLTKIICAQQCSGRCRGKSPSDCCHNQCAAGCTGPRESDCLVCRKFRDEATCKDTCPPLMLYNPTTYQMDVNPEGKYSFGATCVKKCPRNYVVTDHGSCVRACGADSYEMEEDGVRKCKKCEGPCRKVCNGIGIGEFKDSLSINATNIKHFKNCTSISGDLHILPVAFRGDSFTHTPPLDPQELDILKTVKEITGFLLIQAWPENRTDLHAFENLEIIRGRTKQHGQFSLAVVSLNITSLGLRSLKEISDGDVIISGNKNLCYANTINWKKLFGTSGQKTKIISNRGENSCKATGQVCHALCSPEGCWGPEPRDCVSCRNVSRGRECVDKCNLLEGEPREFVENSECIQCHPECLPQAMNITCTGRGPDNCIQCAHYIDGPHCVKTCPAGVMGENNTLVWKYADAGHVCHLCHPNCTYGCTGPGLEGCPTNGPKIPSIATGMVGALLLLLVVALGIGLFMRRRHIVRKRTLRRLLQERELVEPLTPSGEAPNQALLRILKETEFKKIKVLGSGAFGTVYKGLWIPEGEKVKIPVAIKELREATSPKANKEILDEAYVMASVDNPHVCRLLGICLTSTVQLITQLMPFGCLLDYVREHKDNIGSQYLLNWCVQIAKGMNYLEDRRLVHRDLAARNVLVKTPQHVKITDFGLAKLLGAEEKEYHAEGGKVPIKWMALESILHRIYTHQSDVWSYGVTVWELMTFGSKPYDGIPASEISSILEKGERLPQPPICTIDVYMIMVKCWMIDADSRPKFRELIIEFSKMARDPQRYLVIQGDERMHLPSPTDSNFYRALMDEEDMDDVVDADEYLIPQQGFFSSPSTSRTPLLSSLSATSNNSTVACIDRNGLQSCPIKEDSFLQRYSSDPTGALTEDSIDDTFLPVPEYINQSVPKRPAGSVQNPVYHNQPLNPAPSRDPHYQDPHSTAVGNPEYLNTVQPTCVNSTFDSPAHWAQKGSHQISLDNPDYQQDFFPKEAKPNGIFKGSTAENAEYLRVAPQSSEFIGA
hERG potassium currents (IKr), sequence (Q12809 whole entry): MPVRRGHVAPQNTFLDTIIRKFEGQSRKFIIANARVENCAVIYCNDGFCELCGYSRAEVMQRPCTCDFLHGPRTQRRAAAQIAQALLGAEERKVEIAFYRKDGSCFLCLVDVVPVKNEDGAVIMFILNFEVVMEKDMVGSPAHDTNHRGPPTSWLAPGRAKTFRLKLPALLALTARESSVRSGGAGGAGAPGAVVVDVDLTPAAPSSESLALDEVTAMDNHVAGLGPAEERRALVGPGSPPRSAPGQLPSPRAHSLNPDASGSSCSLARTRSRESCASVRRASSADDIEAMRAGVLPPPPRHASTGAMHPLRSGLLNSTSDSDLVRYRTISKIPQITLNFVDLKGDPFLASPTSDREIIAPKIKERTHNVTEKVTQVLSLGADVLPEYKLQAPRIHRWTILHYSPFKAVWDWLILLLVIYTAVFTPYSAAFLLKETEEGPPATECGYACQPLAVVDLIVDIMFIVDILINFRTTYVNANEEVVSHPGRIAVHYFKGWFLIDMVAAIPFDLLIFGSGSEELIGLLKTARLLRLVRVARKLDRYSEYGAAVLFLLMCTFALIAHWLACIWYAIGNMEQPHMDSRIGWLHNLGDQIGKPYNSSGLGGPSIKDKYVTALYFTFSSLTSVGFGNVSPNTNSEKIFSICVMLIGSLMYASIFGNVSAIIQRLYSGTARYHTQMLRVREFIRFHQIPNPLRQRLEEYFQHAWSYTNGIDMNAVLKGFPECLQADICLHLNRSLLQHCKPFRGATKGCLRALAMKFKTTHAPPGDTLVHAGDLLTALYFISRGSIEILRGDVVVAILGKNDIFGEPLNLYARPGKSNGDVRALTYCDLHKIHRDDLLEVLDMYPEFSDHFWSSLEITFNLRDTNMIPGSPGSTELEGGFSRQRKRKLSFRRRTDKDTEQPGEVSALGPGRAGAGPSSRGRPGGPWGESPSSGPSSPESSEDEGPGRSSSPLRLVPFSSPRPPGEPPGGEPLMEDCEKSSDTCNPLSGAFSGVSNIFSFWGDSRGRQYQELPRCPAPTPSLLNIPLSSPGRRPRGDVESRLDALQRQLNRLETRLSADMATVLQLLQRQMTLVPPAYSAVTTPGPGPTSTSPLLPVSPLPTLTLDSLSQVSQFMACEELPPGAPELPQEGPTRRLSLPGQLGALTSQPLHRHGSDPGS

SMILES: NS(=O)(=O)CCNCc1ccc(-c2ccc3ncnc(Nc4ccc(OCc5cccc(F)c5)c(Cl)c4)c3c2)o1 [Compound 1, N-(4-(3-fluorobenzyloxy)-3-chlorophenyl)-6-(5-((2-(sulfamoyl)ethylamino)methyl)-2-furyl)-quinazolin-4-amine]
- IC50 [1]: 1.55 nM

SMILES: C[S+]([O-])CCNCc1ccc(-c2ccc3ncnc(Nc4ccc(OCc5cccc(F)c5)c(Cl)c4)c3c2)o1 (centres unmarked) [Compound 2, N-(4-(3-fluorobenzyloxy)-3-chlorophenyl)-6-(5-((2-(methylsulfinyl)ethylamino)methyl)-2-furyl)-quinazolin-4-amine]
- IC50 [2]: 52.7 nM
- AUC0-t ± SD [3]: 50299 ± 12863 ng·h/mL
- AUC0-∞ ± SD [3]: 53236 ± 12248 ng·h/mL
- Cmax ± SD [3]: 8881 ± 2061 ng/mL
- MRT ± SD [3]: 5.38 ± 0.59 h
- T1/2 ± SD [3]: 2.32 ± 0.5 h
- Tmax ± SD [3]: 3.5 ± 1.0 h
- IC50 ([4]; read-out: semi-effective inhibition dose IC50 for IKr pulse current): 10100 ± 960 nM
- IC50 ([4]; read-out: semi-effective inhibition dose IC50 for tail current): ~9240 nM

SMILES: CSCCNCc1ccc(-c2ccc3ncnc(Nc4ccc(OCc5cccc(F)c5)c(Cl)c4)c3c2)o1 [Compound 3, N-(4-(3-fluorobenzyloxy)-3-chlorophenyl)-6-(5-((2-(methylthio)ethylamino)methyl)-2-furyl)-quinazolin-4-amine]
- IC50 [2]: 56.2 nM
- IC50 [1]: 34.6 nM
- IC50 [5]: 24.9 nM
- IC50 [6]: 23.4 nM
- RTV (relative tumor volume) [7]: 0.743
- Rate of tumor inhibition d21 (%) [7]: 84.6%
- d28 Vave (tumor volume) [7]: 143.01
- Animal number in each group: Partial regression [7]: 4
- RTV (relative tumor volume) [8]: 2.7
- Rate of tumor inhibition d21 (%) [8]: 75%
- d21 Vave (tumor volume) [8]: 334.8 mm^3
- Animal number in each group: Partial regression [8]: 0
- RTV (relative tumor volume) ([9]; 50 mg/kg intragastrically): 6.9
- Rate of tumor inhibition d21 (%) ([9]; 50 mg/kg intragastrically): 32%
- d21 Vave (tumor volume) ([9]; 50 mg/kg intragastrically): 830.7 mm^3
- Animal number in each group: Partial regression ([9]; 50 mg/kg intragastrically): 0
- RTV (relative tumor volume) ([9]; 100 mg/kg intragastrically): 6.5
- Rate of tumor inhibition d21 (%) ([9]; 100 mg/kg intragastrically): 36%
- d21 Vave (tumor volume) ([9]; 100 mg/kg intragastrically): 778.6 mm^3
- Animal number in each group: Partial regression ([9]; 100 mg/kg intragastrically): 0
- RTV (relative tumor volume) ([9]; 200 mg/kg intragastrically): 4.4
- Rate of tumor inhibition d21 (%) ([9]; 200 mg/kg intragastrically): 56%
- d21 Vave (tumor volume) ([9]; 200 mg/kg intragastrically): 612.6 mm^3
- Animal number in each group: Partial regression ([9]; 200 mg/kg intragastrically): 0

SMILES: CS(=O)(=O)NCCNCc1ccc(-c2ccc3ncnc(Nc4ccc(OCc5cccc(F)c5)c(Cl)c4)c3c2)o1 [Compound 4, N-(4-(3-fluorobenzyloxy)-3-chlorophenyl)-6-(5-((2-(methylsulfonamido)ethylamino)methyl)-2-furyl)-quinazolin-4-amine]
- IC50 [2]: 15.5 nM
- IC50 [1]: 7.06 nM

SMILES: O=S(=O)(CCNCc1ccc(-c2ccc3ncnc(Nc4ccc(OCc5cccc(F)c5)c(Cl)c4)c3c2)o1)CC(F)(F)F [Compound 5, N-(4-(3-fluorobenzyloxy)-3-chlorophenyl)-6-(5-((2-(2,2,2-trifluoroethylsulfonyl)ethylamino)methyl)-2-furyl)-quinazolin-4-amine]
- IC50 [2]: 14.6 nM
- IC50 [1]: 8.08 nM
- IC50 [5]: 33.7 nM
- IC50 [6]: 18.8 nM
- RTV (relative tumor volume) [7]: 2.574
- Rate of tumor inhibition d21 (%) [7]: 46.8%
- d28 Vave (tumor volume) [7]: 414.78
- Animal number in each group: Partial regression [7]: 1
- RTV (relative tumor volume) [8]: 5.8
- Rate of tumor inhibition d21 (%) [8]: 45%
- d21 Vave (tumor volume) [8]: 770.9 mm^3
- Animal number in each group: Partial regression [8]: 0

SMILES: O=S(=O)(CCNCc1ccc(-c2ccc3ncnc(Nc4ccc(OCc5cccc(F)c5)c(Cl)c4)c3c2)o1)C(F)(F)F [Compound 6, N-(4-(3-fluorobenzyloxy)-3-chlorophenyl)-6-(5-((2-(trifluoromethylsulfonyl)ethylamino)methyl)-2-furyl)-quinazolin-4-amine]
- IC50 [2]: 32.4 nM
- IC50 [1]: 25.6 nM
- IC50 [5]: 54.6 nM
- IC50 [6]: 49.7 nM

SMILES: CS(=O)(=O)CCNCc1ccc(-c2ccc3ncnc(Nc4ccc(OCc5cccc(F)c5)c(Cl)c4)c3c2)o1 [Compound 61, N-(4-(3-fluorobenzyloxy)-3-chlorophenyl)-6-(5-((2-(methylsulfonyl)ethylamino)methyl)-2-furyl)-quinazolin-4-amine, reference compound]
- biological activity results in the same test (in words) ([5]; same test as Table 1 (cell proliferation inhibition, N87 and BT474), comparison in words): close to those of compound 6
- Rate of tumor inhibition d21 (%) [7]: 89.8%
- d28 Vave (tumor volume) [7]: 106.20
- Animal number in each group: Partial regression [7]: 5
- Rate of tumor inhibition d21 (%) [8]: 79%
- d21 Vave (tumor volume) [8]: 291.0 mm^3
- Animal number in each group: Partial regression [8]: 1
- Rate of tumor inhibition d21 (%) ([9]; 200 mg/kg intragastrically): 75%
- d21 Vave (tumor volume) ([9]; 200 mg/kg intragastrically): 350.1 mm^3
- Animal number in each group: Partial regression ([9]; 200 mg/kg intragastrically): 0
- AUC0-t ± SD [3]: 26908 ± 9085 ng·h/mL
- AUC0-∞ ± SD [3]: 26921 ± 9092 ng·h/mL
- Cmax ± SD [3]: 3902 ± 1208 ng/mL
- MRT ± SD [3]: 5.52 ± 0.90 h
- T1/2 ± SD [3]: 1.91 ± 0.45 h
- Tmax ± SD [3]: 2.5 ± 0.6 h
